Tests used:
[1] = Compatibility with polyethylene sheets (efflorescence at room temperature); assay type: physicochemical; details: 1 mm sheets; for Compatibility 0.1% (number of days over which no efflorescence phenomena are detectable): 0.1 part in 100 parts polyethylene; for Compatibility 0.3% (number of days over which no efflorescence phenomena are detectable): 0.3 part in 100 parts polyethylene
Protocol: (§1) 100 Parts of polyethylene having a density of 0.917 are homogeneously mixed in a Brabender plastograph with 0.1 and 0.3 parts, respectively, of a light-stabilising agent of formula I at 180°C for 10 minutes. The resulting mixture is moulded in a platen press at 170°C to give 1 mm thick sheets, and these are then examined visually for undissolved constituents. The sheets are suspended at room temperature and periodically examined for efflorescence phenomena.
*Compatibility: number of days over which no efflorescence phenomena are […]

[2] = Solubility in polyethylene sheets (visual examination for undissolved constituents); assay type: physicochemical; details: 1 mm sheets; for Solubility 0.1%: 0.1 part in 100 parts polyethylene (density 0.917); for Solubility 0.3%: 0.3 part in 100 parts polyethylene (density 0.917)
Protocol: as §1

[3] = Light stabilization of polystyrene sheets, yellowing factor after exposure in Xenotest 150; details: exposed 2,000 hours in Xenotest 150; 0.25 part per 100 parts polystyrene, 2 mm sheets; no light stabilizer: 20.0
Protocol: 100 parts of polystyrene granules are mixed dry with 0.25 part of a light stabilizer from Table 4 below and the mixture is regranulated in an extruder and subsequently moulded on an injection moulding machine to give 2 mm thick sheets. The sheets obtained are exposed for 2,000 hours in the Xenotest 150 apparatus and their yellowing is determined as follows, from the yellowing factor: [formula] wherein Δ T denotes the loss in transmission at wavelengths 420 and 680 nm respectively, which has occurred during exposure, and T(560) denotes the transmission value in percent of the unexposed sample at 560 nm.

[4] = Light stabilization of polypropylene film, carbonyl (CO) extinction on exposure in Xenotest 150; details: 0.25 part per 100 parts polypropylene, 0.1 mm film, with 0.2 part antioxidant, no light stabilizer: 0.300 at 1,000 hours
Protocol: 100 parts of polypropylene powder (Moplen, fibre grade, from Messrs. Montedison) are homogenised with 0.2 part of β-(3,5-di-tert-butyl-4-hydroxyphenyl)-propionic acid octadecyl ester as the antioxidant and 0.25 part of a light stabilizer from Table 2 below, for 10 minutes in a Brabender plastograph at 200°C. The mass thus obtained is taken from the kneader as rapidly as possible and is pressed in a toggle press to give 2 - 3 mm thick sheets. A part of the pressed blank obtained is cut out and pressed between two high gloss hard aluminium foils for 6 minutes at 260°C and 12 tons pressure, using a manual hydraulic laboratory press, to give an 0.5 mm thick film which is immediately chilled in cold water. The 0.1 mm thick test film is produced from this 0.5 mm film under exactly the same conditions. Pieces of 60 × 44 mm are now punched from the 0.1 mm thick film and exposed in the Xenotest 150. At regular intervals of time, these test specimens are taken from the light exposure apparatus and examined for their carbonyl content in an IR-spectrophotometer. The increase in the carbonyl extinction during exposure to light is a measure of the photo-oxidative degradation of the polymer [see L. Balaban et al., J. Polymer Sci. Part C, 22, 1059-1071 (1969); J. F. Heacock, J. Polymer Sci. Part A-1, 22, 2921-34 (1969); D. J. Carlsson and DM. Wiles, Macromolecules 2,587-606 (1969)] and is, according to experience, associated with a deterioration of the mechanical properties of the polymer. Thus, for example, the film stabilised with antioxidant only is completely brittle when it reaches a carbonyl extinction of approx. 0.300. The protective action of the light stabilizers according to the invention can be seen from the following Table 3: […]

Row | SMILES | Compatibility 0.1% (number of days over which no efflorescence phenomena are detectable) [1] | Compatibility 0.3% (number of days over which no efflorescence phenomena are detectable) [1] | Solubility 0.1% [2] | Solubility 0.3% [2] | Y.F. (yellowing factor) [3] | CO extinction (5.85 μ) ([4]; exposure time 6,000 hours) | CO extinction (5.85 μ) ([4]; exposure time 5,000 hours)
1 | CCCCCCCCN1C(=O)C2(CCCCC2)NC12CCCCC2 [III] | 200 days | 200 days | dissolv. | dissolv. |  |  | 
2 | C=CCN1C(=O)C2(CCCCC2)NC12CCCCC2 [II] | 200 days | 200 days | dissolv. | dissolv. |  |  | 
3 | CCCCCCCCCCCCCCCCCCN1C(=O)C2(CCCCC2)NC12CCCCC2 [IV] | 200 days | 200 days | dissolv. | dissolv. |  |  | 
4 | O=C1N(Cc2ccccc2)C2(CCCCC2)NC12CCCCC2 [I] |  |  |  |  | 4.5 | 0.010 | 
5 | CCCCCCCCOC(=O)CN1C(=O)C2(CCCCC2)NC12CCCCC2 [VIII] | 200 days | 200 days | dissolv. | dissolv. |  |  | 
6 | O=C1N(CCCCN2C(=O)C3(CCCCC3)NC23CCCCC3)C2(CCCCC2)NC12CCCCC2 [VI] |  |  |  |  | 5.5 | 0.010 | 
7 | O=C(CN1C(=O)C2(CCCCC2)NC12CCCCC2)OCC(COC(=O)CN1C(=O)C2(CCCCC2)NC12CCCCC2)(COC(=O)CN1C(=O)C2(CCCCC2)NC12CCCCC2)COC(=O)CN1C(=O)C2(CCCCC2)NC12CCCCC2 [XI] |  |  |  |  |  |  | 0.010
